The subject of data set [1] is classical complement pathway. Briefly: In vitro haemolysis assay (inhibition of classical complement pathway). In kind it is cell-based, human. As to conditions: human serum, sensitized sheep red blood cells. The protocol:
The in vitro effect of the compounds of the present invention was assessed by measuring their inhibitory effect of the classical complement pathway in a haemolysis assay. Briefly, compounds of the present invention and reference compounds were dissolved in DMSO and diluted in Tris/Casein Assay Buffer (10 mM Tris, 145 mM NaCl, 0.5 mM MgCl2, 0.15 mM CaCl2), and 0.1% W/V Casein, adjusted to pH 7.4) as 9-point serial dilutions in a 96 well plate. Sensitized sheep red blood cells (RBC) coated with rabbit anti-sheep erythrocyte antiserum (Complement Technology, Inc., TX, USA) were washed in Tris/Casein Assay Buffer. […] from each well of diluted compound was added to a 96-well plate containing 50 μL diluted human serum (Complement Technology, Inc., TX, USA) and incubated for 15 minutes at room temperature. The serum dilution factor was optimized for every serum batch to obtain 70-90% of maximal haemolysis using the protocol. Then 50 μL sensitized sheep red blood cells were added to all wells (10^7 per well). After 30 minutes of incubation at 37 QC with gentle agitation, the reaction was stopped by addition of 50 μL Tris STOP Buffer per well (10 mM EDTA, 10 mM Tris, 145 mM NaCl adjusted to pH 7.4). The RBCs were then removed by centrifugation and the resulting supernatant measured for hemolysis by absorbance at 405 nm. The response was normalized relative to a positive and negative control (vehicle) to calculate the IC50 from the concentration response curve using the 4-parameter logistic (4PL) nonlinear model for curve fitting.

A short description of data set [2]: Solubility test at 10 mg/mL (visual inspection and light scattering). To be noted: for Solubility, Condition 1: Acetate pH 4; for Solubility, Condition 2: Acetate pH 5; for Solubility, Condition 3: Phosphate pH 6; for Solubility, Condition 4: Phosphate pH 7; for Solubility, Condition 5: Phosphate pH 7.5. In kind it is physicochemical. As for the experimental part:
The solubility of compounds was assessed by measuring light scattering over a pH interval from pH 4 to pH 7.5.
Compounds were dissolved in a stock solution of 20 mg/mL in H2O at pH 2.5 or pH 10. These stock solutions were diluted 1:1 with 200 mM buffered solution to reach a final solution of 10 mg/mL compound in 100 mM buffer. The 5 investigated conditions were (1) acetate pH 4.0, (2) acetate pH 5.0, (3) phosphate pH 6.0, (4) phosphate pH 7 and (5) phosphate pH 7.5.
Visual inspection included manually checking the 96 well plate for wells that are clear or non-clear. In addition to this a picture of the 96 well plate is taken.
Absorbance was measured at four wavelengths: 280 nm, 325 nm, 340 nm and 360 nm in an UV transparent 96 well microplate in a SpectraMax 190 microplate reader (Molecular Devices).
The criteria for this was a combination of visual inspection and light scattering not exceeding 0.1 AU, where values below 0.1 AU are good in visually clear samples.

[3] abbreviates: Table 3, given as upper bounds, read-out: IC50, inhibition of hemolysis.

The source of these data is patent US11965039B2, “Compstatin analogues and their medical uses” (priority 2018, dated 2024).

pIC50: −log10 of the molar value. Like-named read-outs stand apart in the source and are kept apart here. Starred links: 1 amine or outer side, 2 acyl side, 3 side chain; linkers in the order of their positions; H or OH if unused. Positions of bridges follow the written chain, without caps; N, C: chain ends. Non-standard residues stand in square brackets, D forms with d. Residues, ends and D or L forms follow the SMILES beside them. Groups on a side chain read outwards from the residue. *: point of attachment. Trp(1-Me) = Cn1cc(C[C@H](N)C(=O)O)c2ccccc21; C18 diacid = O=C(O)CCCCCCCCCCCCCCCCC(=O)*; γGlu = O=C(O)[C@H](CCC(=O)[*:2])N[*:1]; Sar = CNCC(=O)O

In the case of `CC[C@H](C)[C@@H]1NC(=O)[C@@H](NC(=O)CN(C)C(=O)[C@H](N)Cc2ccc(O)cc2)CSSC[C@@H](C(=O)N[C@H](C(=O)N[C@@H](CCC(=O)O)C(=O)N[C@@H](C)C(N)=O)[C@@H](C)O)NC(=O)[C@H](CCCNC(=N)N)NC(=O)[C@H](Cc2c[nH]cn2)NC(=O)[C@H](CCC(=O)O)NC(=O)CNC(=O)[C@H](Cc2c[nH]c3ccccc23)NC(=O)[C@H](CC(=O)O)NC(=O)[C@H](CCC(N)=O)NC(=O)[C@H](Cc2cn(C)c3ccccc23)NC1=O` [Compound 91] (H-[dY][Sar]CI[Trp(1-Me)]QDWGEHRCTEA-NH2; disulfide 3-13), in data set [1] (setting [3]), the negative logarithm of the IC50 (pIC50) was > 7.00.
For `CC[C@H](C)[C@H](NC(C)=O)C(=O)N[C@H]1CSSC[C@@H](C(=O)N[C@H](C(N)=O)[C@@H](C)O)NC(=O)[C@H](CCCNC(=N)N)NC(=O)[C@H](Cc2c[nH]cn2)NC(=O)[C@H](CO)NC(=O)CNC(=O)[C@H](Cc2c[nH]c3ccccc23)NC(=O)[C@H](CC(=O)O)NC(=O)[C@H](CCC(N)=O)NC(=O)[C@H](Cc2c[nH]c3ccccc23)NC(=O)[C@H]([C@@H](C)CC)NC1=O` [Compound 6] (Ac-ICIWQDWGSHRCT-NH2; disulfide 2-12), the negative logarithm of the IC50 (pIC50) in data set [1] (setting [3]) is > 6.60; in data set [1] (Table 4, valine 3 vs isoleucine 3 pairs, read-out: CP hemolysis IC50), 6.85.
`CC[C@H](C)[C@@H]1NC(=O)[C@@H](NC(=O)[C@H](Cc2ccc(O)cc2)NC(=O)[C@H](CCC(=O)O)NC(=O)[C@H](CO)NC(C)=O)CSSC[C@@H](C(=O)N(C)CC(=O)N[C@@H](CCC(=O)O)C(=O)N[C@@H](C)C(N)=O)NC(=O)[C@H](CCCNC(=N)N)NC(=O)[C@H](Cc2c[nH]cn2)NC(=O)[C@H](CCC(=O)O)NC(=O)CNC(=O)[C@H](Cc2c[nH]c3ccccc23)NC(=O)[C@H](CC(=O)O)NC(=O)[C@H](CCC(N)=O)NC(=O)[C@H](Cc2cn(C)c3ccccc23)NC1=O` [Compound 71] (Ac-SEYCI[Trp(1-Me)]QDWGEHRC[Sar]EA-NH2; disulfide 4-14): the pIC50 in data set [1] (setting [3]) was > 7.00.
With `CC[C@H](C)[C@@H]1NC(=O)[C@@H](NC(=O)[C@H](Cc2ccccc2)NC(=O)[C@H](CCC(=O)O)NC(=O)[C@H](CO)NC(C)=O)CSSC[C@@H](C(=O)N[C@H](C(=O)N[C@@H](CCC(=O)O)C(=O)NCC(=O)N[C@@H](CCC(=O)O)C(=O)NCC(=O)NCC(=O)NCC(=O)N[C@@H](CCCCNC(=O)CC[C@H](NC(=O)CNC(=O)CC[C@H](NC(=O)CCCCCCCCCCCCCCCCC(=O)O)C(=O)O)C(=O)O)C(N)=O)[C@@H](C)O)NC(=O)[C@H](CCCNC(=N)N)NC(=O)[C@H](Cc2c[nH]cn2)NC(=O)[C@H](CCC(=O)O)NC(=O)CNC(=O)[C@H](Cc2c[nH]c3ccccc23)NC(=O)[C@H](CC(=O)O)NC(=O)[C@H](CCC(N)=O)NC(=O)[C@H](Cc2cn(C)c3ccccc23)NC1=O` [Compound 130] (Ac-SEFCI[Trp(1-Me)]QDWGEHRCTEGEGGGK([γGlu-Gly-γGlu-C18 diacid])-NH2; disulfide 4-14), the pIC50 in data set [1] (setting [3]) is > 7.00.
For `CC[C@H](C)[C@@H]1NC(=O)[C@@H](NC(=O)[C@H](Cc2ccccc2)NC(=O)[C@H](CCC(=O)O)NC(=O)[C@H](CO)NC(C)=O)CSSC[C@@H](C(=O)N[C@H](C(=O)N[C@@H](CCC(=O)O)C(=O)N[C@@H](CCCCN)C(=O)N[C@@H](CCC(=O)NCC(=O)NCC(=O)NCC(=O)N[C@@H](CCCCNC(=O)CC[C@H](NC(=O)CNC(=O)CC[C@H](NC(=O)CCCCCCCCCCCCCCCCC(=O)O)C(=O)O)C(=O)O)C(N)=O)C(=O)O)[C@@H](C)O)NC(=O)[C@H](CCCNC(=N)N)NC(=O)[C@H](Cc2c[nH]cn2)NC(=O)[C@H](CCC(=O)O)NC(=O)CNC(=O)[C@H](Cc2c[nH]c3ccccc23)NC(=O)[C@H](CC(=O)O)NC(=O)[C@H](CCC(N)=O)NC(=O)[C@H](Cc2cn(C)c3ccccc23)NC1=O` [Compound 133] (Ac-SEFCI[Trp(1-Me)]QDWGEHRCTEK[γGlu]GGGK([γGlu-Gly-γGlu-C18 diacid])-NH2; disulfide 4-14), the pIC50 in data set [1] (setting [3]) is > 7.00.
For the molecule `CC[C@H](C)[C@H](N)C(=O)N[C@H]1CSSC[C@@H](C(=O)N[C@H](C(N)=O)[C@@H](C)O)NC(=O)[C@H](CCCN=C(N)N)NC(=O)[C@H](Cc2cnc[nH]2)NC(=O)[C@H](Cc2cnc[nH]2)NC(=O)CNC(=O)[C@H](Cc2c[nH]c3ccccc23)NC(=O)[C@H](CC(=O)O)NC(=O)[C@H](CCC(N)=O)NC(=O)[C@H](C(C)C)NC(=O)[C@H](C(C)C)NC1=O` [Compstatin], in data set [1] (Table 3, cells printed in μM, read-out: IC50, inhibition of hemolysis), the IC50 was > 5 µM.
With `CC[C@H](C)[C@@H]1NC(=O)[C@@H](NC(=O)[C@H](Cc2ccccc2)NC(C)=O)CSSC[C@@H](C(=O)N[C@H](C(N)=O)[C@@H](C)O)NC(=O)[C@H](CCCNC(=N)N)NC(=O)[C@H](Cc2c[nH]cn2)NC(=O)[C@H](CCC(=O)O)NC(=O)CNC(=O)[C@H](Cc2c[nH]c3ccccc23)NC(=O)[C@H](CC(=O)O)NC(=O)[C@H](CCC(N)=O)NC(=O)[C@H](Cc2c[nH]c3ccccc23)NC1=O` [Compound 23] (Ac-FCIWQDWGEHRCT-NH2; disulfide 2-12), the negative-log IC50 (pIC50) in data set [1] (setting [3]) is > 7.00.
Turning to `CC[C@H](C)[C@@H]1NC(=O)[C@@H](NC(=O)[C@H](Cc2ccc(O)cc2)NC(=O)[C@H](CCC(=O)O)NC(=O)[C@H](CO)NC(C)=O)CSSC[C@@H](C(=O)N(C)CC(=O)N[C@@H](CCC(=O)O)C(=O)NCC(=O)N[C@@H](CCC(=O)O)C(=O)N[C@@H](CCCCNC(=O)CC[C@H](NC(=O)[C@H](CCCCN)NC(=O)CC[C@H](NC(=O)CCCCCCCCCCCCCCCCC(=O)O)C(=O)O)C(=O)O)C(N)=O)NC(=O)[C@H](CCCNC(=N)N)NC(=O)[C@H](Cc2c[nH]cn2)NC(=O)[C@H](CCC(=O)O)NC(=O)CNC(=O)[C@H](Cc2c[nH]c3ccccc23)NC(=O)[C@H](CC(=O)O)NC(=O)[C@H](CCC(N)=O)NC(=O)[C@H](Cc2cn(C)c3ccccc23)NC1=O` [Compound 116] (Ac-SEYCI[Trp(1-Me)]QDWGEHRC[Sar]EGEK([γGlu-Lys-γGlu-C18 diacid])-NH2; disulfide 4-14), in data set [2], the “Solubility, Condition 1” value was “− (“−” denotes lack of solubility at the given condition, as UV absorbance at 340 nm exceeds 0.1 AU and/or it is visibly turbid or contains particles)”; the “Solubility, Condition 2” value is reported as “− (“−” denotes lack of solubility at the given condition, as UV absorbance at 340 nm exceeds 0.1 AU and/or it is visibly turbid or contains particles)”; the “Solubility, Condition 3” value is “+ (“+” denotes solubility at the given condition, as determined by UV absorbance being less than 0.1 AU at 340 nm and the sample being clear when manually inspected)”; the “Solubility, Condition 4” value was “+ (“+” denotes solubility at the given condition, as determined by UV absorbance being less than 0.1 AU at 340 nm and the sample being clear when manually inspected)”. In data set [2], the “Solubility, Condition 5” value is “+ (“+” denotes solubility at the given condition, as determined by UV absorbance being less than 0.1 AU at 340 nm and the sample being clear when manually inspected)”.
Regarding `CC[C@H](C)[C@@H]1NC(=O)[C@@H](NC(=O)[C@H](Cc2ccc(O)cc2)NC(=O)[C@H](C)NC(=O)[C@H](CO)NC(C)=O)CSSC[C@@H](C(=O)N(C)CC(=O)N[C@@H](CCC(=O)O)C(=O)N[C@@H](CCCCNC(=O)CC[C@H](NC(=O)CNC(=O)[C@H](CCCCN)NC(=O)CC[C@H](NC(=O)CCCCCCCCCCCCCCCCC(=O)O)C(=O)O)C(=O)O)C(N)=O)NC(=O)[C@H](CCCNC(=N)N)NC(=O)[C@H](Cc2c[nH]cn2)NC(=O)[C@H](CCC(=O)O)NC(=O)CNC(=O)[C@H](Cc2c[nH]c3ccccc23)NC(=O)[C@H](CC(=O)O)NC(=O)[C@H](CCC(N)=O)NC(=O)[C@H](Cc2cn(C)c3ccccc23)NC1=O` [Compound 105] (Ac-SAYCI[Trp(1-Me)]QDWGEHRC[Sar]EK([γGlu-Gly-Lys-γGlu-C18 diacid])-NH2; disulfide 4-14), in data set [2], the “Solubility, Condition 1” value was “− (“−” denotes lack of solubility at the given condition, as UV absorbance at 340 nm exceeds 0.1 AU and/or it is visibly turbid or contains particles)”; the “Solubility, Condition 2” value is “− (“−” denotes lack of solubility at the given condition, as UV absorbance at 340 nm exceeds 0.1 AU and/or it is visibly turbid or contains particles)”; the “Solubility, Condition 3” value was “+ (“+” denotes solubility at the given condition, as determined by UV absorbance being less than 0.1 AU at 340 nm and the sample being clear when manually inspected)”; the “Solubility, Condition 4” value was “+ (“+” denotes solubility at the given condition, as determined by UV absorbance being less than 0.1 AU at 340 nm and the sample being clear when manually inspected)”. In data set [2], the “Solubility, Condition 5” value is “+ (“+” denotes solubility at the given condition, as determined by UV absorbance being less than 0.1 AU at 340 nm and the sample being clear when manually inspected)”.

For orientation: pIC50 means the negative decadic logarithm of the IC50, by convention in mol/L. A word on the IC50: it is the midpoint of a concentration-inhibition curve.
